From PMC5513444, “The synthesis and evaluation of triazolopyrimidines as anti-tubercular agents” (Bioorganic & Medicinal Chemistry, 2017)
Values after ≈ are worked out from the molar mass of the structure shown. Read-outs that look alike come from different tables or passages of the source.

Legend:
[1] = test system: Bacillus subtilis Marburg; test: MIC99 on solid medium, B. subtilis; assay type: cell-based; conditions: nutrient agar, 28 °C, 3–4 days
HepG2 cells = test: Cytotoxicity against HepG2 cell line (CellTiter-Glo); assay type: cell-based; conditions: for Selectivity index (SI) = IC50/MIC90: HepG2 IC50 / M. tuberculosis MIC90; for IC50: Homo sapiens, 48 h, HepG2, 2 days incubation, read-out: IC50 (concentration required to reduce the viability of HepG2 cells by 50%)
[2] = test system: Saccharomyces cerevisiae Y187; test: MIC99 on solid medium, S. cerevisiae; conditions: YPD agar, 3–4 days
[3] = test system: Pseudomonas aeruginosa HER1018 (PAO1); test: MIC99 on solid medium, P. aeruginosa; assay type: cell-based; conditions: PAO1, 24 h, tryptic soy agar, 1 day
M. tuberculosis = test: Kill kinetics against M. tuberculosis in liquid culture; assay type: cell-based, Mycobacterium tuberculosis
M. tuberculosis H37Rv [4] = test: MIC99 on solid medium, M. tuberculosis; assay type: cell-based, Mycobacterium tuberculosis; conditions: solid medium 7H10-OADC, 4 weeks, lowest concentration yielding less than 1% growth
Escherichia coli DH5α = test: MIC99 on solid medium, E. coli; assay type: cell-based; conditions: 24 h, LB agar, 1 day
M. tuberculosis H37Rv [5] = test: MIC90 against M. tuberculosis in liquid medium; assay type: cell-based, Mycobacterium tuberculosis; conditions: liquid medium 7H9-Tw-OADC, aerobic, 5 days, average ± SD of two independent experiments, read-out: MIC (MIC90, minimum concentration required to inhibit growth of M. tuberculosis by 90%)
[6] = test system: Mycobacterium smegmatis mc^2155; test: MIC99 on solid medium, M. smegmatis; assay type: cell-based; conditions: Mycolicibacterium smegmatis, 3–4 days
[7] = Mycobacterium tuberculosis, H37RV, 120 h

Compound	Selectivity index (SI) = IC50/MIC90 (HepG2 cells)	IC50 (HepG2 cells) [µM]	melting point [°C]	MIC90 (M. tuberculosis H37Rv [5]; [7]) [µM]	other results
COc1ccc(CCNc2cc(-c3ccccn3)nc3ncnn23)cc1 [Compound 16, N-(4-Methoxyphenethyl)-5-(pyridin-2-yl)-[1,2,4]triazolo[1,5-a]pyrimidin-7-amine]	>130	> 100	172 to 173	0.83 ± 0.26 (≈ 0.288 µg/mL)	MIC99 [1]: > 100 µM; MIC99 S. cerevisiae [2]: >100 µM; MIC99 [3]: > 100 µM; Kill of non-replicating M. tuberculosis (M. tuberculosis; non-replicating bacteria (starvation conditions, PBS-Ty), over 14–21 days): 2–3 log; Activity against replicating M. tuberculosis (kill kinetics) (M. tuberculosis; replicating bacteria in 7H9-Tw-OADC, over 21 days): static activity; MIC99 (M. tuberculosis H37Rv [4]; Mycobacterium tuberculosis, H37RV, 672 h): 13 µM (≈ 4.5 µg/mL); MIC99 (M. tuberculosis H37Rv [4]): < 20 µM; MIC99 (Escherichia coli DH5α): > 100 µM; MIC99 [6]: > 100 µM
c1ccc(CCNc2cc(-c3ccccc3)nc3ncnn23)cc1 [Compound 39, N-Phenethyl-5-phenyl-[1,2,4]triazolo[1,5-a]pyrimidin-7-amine]	3.5	27	164 to 165	7.7 ± 0.7 (≈ 2.43 µg/mL)	
c1ccc(CCCNc2cc(-c3ccccc3)nc3ncnn23)cc1 [Compound 40, 5-Phenyl-N-(3-phenylpropyl)-[1,2,4]triazolo[1,5-a]pyrimidin-7-amine]		8.7	143 to 145	> 20	
c1ccc(-c2cc(NCCc3ccccn3)n3ncnc3n2)cc1 [Compound 41, 5-Phenyl-N-(2-(pyridin-2-yl)ethyl)-[1,2,4]triazolo[1,5-a]pyrimidin-7-amine]		> 100	111 to 114	> 20	
c1ccc(-c2cc(NCCc3cccnc3)n3ncnc3n2)cc1 [Compound 42, 5-Phenyl-N-(2-(pyridin-3-yl)ethyl)-[1,2,4]triazolo[1,5-a]pyrimidin-7-amine]		> 100	169 to 171	> 20	
c1ccc(-c2cc(NCCc3ccncc3)n3ncnc3n2)cc1 [Compound 43, 5-Phenyl-N-(2-(pyridin-4-yl)ethyl)-[1,2,4]triazolo[1,5-a]pyrimidin-7-amine]		> 100	231 to 233	> 20	
CCc1ccc(CCNc2cc(-c3ccccc3)nc3ncnn23)cc1 [Compound 45, N-(4-Ethylphenethyl)-5-phenyl-[1,2,4]triazolo[1,5-a]pyrimidin-7-amine]	>138	> 100	152 to 154	0.74 ± 0.1 (≈ 0.254 µg/mL)	
Fc1ccc(CCNc2cc(-c3ccccc3)nc3ncnn23)cc1 [Compound 46, N-(4-Fluorophenethyl)-5-phenyl-[1,2,4]triazolo[1,5-a]pyrimidin-7-amine]		50	169 to 170	> 20	
FC(F)(F)c1ccc(CCNc2cc(-c3ccccc3)nc3ncnn23)cc1 [Compound 47, 5-Phenyl-N-(4-(trifluoromethyl)phenethyl)-[1,2,4]triazolo[1,5-a]pyrimidin-7-amine]	>38	> 100	183 to 184	2.7 ± 0.7 (≈ 1.04 µg/mL)	
COc1ccc(CC(=O)Nc2cc(-c3ccccc3)nc3ncnn23)cc1OC [Compound 50, 2-(3,4-Dimethoxyphenyl)-N-(5-phenyl-[1,2,4]triazolo[1,5-a]pyrimidin-7-yl)acetamide]	>10	> 100	202 to 204	10 ± 1.1 (≈ 3.89 µg/mL)	
c1ccc(CCNc2cc(-c3ccccn3)nc3ncnn23)cc1 [Compound 51, N-Phenethyl-5-(pyridin-2-yl)-[1,2,4]triazolo[1,5-a]pyrimidin-7-amine]	>46	> 100	214 to 215	2.4 ± 1.3 (≈ 0.759 µg/mL)	
c1ccc(CCNc2cc(-c3ccccn3)nc3ncnn23)nc1 [Compound 52, 5-(Pyridin-2-yl)-N-(2-(pyridin-2-yl)ethyl)-[1,2,4]triazolo[1,5-a]pyrimidin-7-amine]		> 100	156 to 157	> 20	
c1ccc(-c2cc(NCCc3cccnc3)n3ncnc3n2)nc1 [Compound 53, 5-(Pyridin-2-yl)-N-(2-(pyridin-3-yl)ethyl)-[1,2,4]triazolo[1,5-a]pyrimidin-7-amine]		> 100	212 to 213	> 20	
c1ccc(-c2cc(NCCc3ccncc3)n3ncnc3n2)nc1 [Compound 54, 5-(Pyridin-2-yl)-N-(2-(pyridin-4-yl)ethyl)-[1,2,4]triazolo[1,5-a]pyrimidin-7-amine]		> 100	201 to 202	> 20	
Cc1ccc(CCNc2cc(-c3ccccn3)nc3ncnn23)cc1 [Compound 55, N-(4-Methylphenethyl)-5-(pyridin-2-yl)-[1,2,4]triazolo[1,5-a]pyrimidin-7-amine]	>196	> 100	194 to 196	0.52 ± 0.1 (≈ 0.172 µg/mL)	
CCc1ccc(CCNc2cc(-c3ccccn3)nc3ncnn23)cc1 [Compound 56, N-(4-Ethylphenethyl)-5-(pyridin-2-yl)-[1,2,4]triazolo[1,5-a]pyrimidin-7-amine]	220	44	154 to 155	0.2 ± 0.02 (≈ 0.0689 µg/mL)	
Fc1ccc(CCNc2cc(-c3ccccn3)nc3ncnn23)cc1 [Compound 57, N-(4-Fluorophenethyl)-5-(pyridin-2-yl)-[1,2,4]triazolo[1,5-a]pyrimidin-7-amine]	17	81	190 to 192	4.8 ± 1.3 (≈ 1.6 µg/mL)	
FC(F)(F)Oc1ccc(CCNc2cc(-c3ccccn3)nc3ncnn23)cc1 [Compound 59, 5-(Pyridin-2-yl)-N-(4-(trifluoromethoxy)phenethyl)-[1,2,4]triazolo[1,5-a]pyrimidin-7-amine]	>72	> 100	163 to 165	1.6 ± 1.1 (≈ 0.641 µg/mL)	
COc1ccc(CCN(C)c2cc(-c3ccccc3)nc3ncnn23)cc1 [Compound 61, N-(4-Methoxyphenethyl)-N-methyl-5-phenyl-[1,2,4]triazolo[1,5-a]pyrimidin-7-amine]		17	170 to 171	> 20	
COc1ccc(C2CCN(c3cc(-c4ccccn4)nc4ncnn34)C2)cc1 (centres unmarked) [Compound 62, 7-(3-(4-Methoxyphenyl)pyrrolidin-1-yl)-5-(pyridin-2-yl)-[1,2,4]triazolo[1,5-a]pyrimidine]		23	222 to 223	> 20	
COc1ccc(CCNc2cc(-c3ccccn3)nc3nc(C)nn23)cc1 [Compound 67, N-(4-Methoxyphenethyl)-2-methyl-5-(pyridin-2-yl)-[1,2,4]triazolo[1,5-a]pyrimidin-7-amine]	>26	> 100	139 to 141	3.9 ± 0.21 (≈ 1.41 µg/mL)	
COc1ccc(CCNc2cc(-c3ccccn3)nc3nc(-c4ccccc4)nn23)cc1 [Compound 68, N-(4-Methoxyphenethyl)-2-phenyl-5-(pyridin-2-yl)-[1,2,4]triazolo[1,5-a]pyrimidin-7-amine]		> 100	146 to 148	> 20	MIC90 (M. tuberculosis H37Rv [5]): >20 µM
COc1ccc(CCNc2cc(-c3ccccn3)nc3ccnn23)cc1 [Compound 69, N-(4-Methoxyphenethyl)-5-(pyridin-2-yl)pyrazolo[1,5-a]pyrimidin-7-amine]	9	23	116 to 117	2.5 ± 0.15 (≈ 0.864 µg/mL)	
COc1ccc(CCNc2cc(-c3ccccn3)nc3nccn23)cc1 [Compound 70, N-(4-Methoxyphenethyl)-7-(pyridin-2-yl)imidazo[1,2-a]pyrimidin-5-amine]	142	30	234 to 235	0.22 ± 0.07 (≈ 0.076 µg/mL)	
